From ChEMBL document CHEMBL1201862, “PubChem BioAssay data set” (2004)
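Dose response: 5 concentrations. Exposure: 48 h. Format: 96-well plates. Endpoint: linear interpolation; highest concentration if not reached. Here, GI50 denotes the concentration required for 50% inhibition of growth.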 Active and inactive are the calls of the source. Cut-off read from the data, not from the text of the source: active = GI50 up to about 1.1 µM and inactive = higher.

Assays:
Test in all cases: inhibition of tumour cell growth, NCI panel, 48 h
HCT-116 = test system: HCT-116
HOP-62 = test system: HOP-62
SNB-75 = test system: SNB-75
OVCAR-8 = test system: OVCAR-8
CAKI-1 = test system: CAKI-1
RXF 393 = test system: RXF 393
DU-145 = test system: DU-145
SW-620 = test system: SW-620
COLO 205 = test system: COLO 205
Hs-578T = test system: Hs-578T
HT-29 = test system: HT-29
SR = test system: SR
UO-31 = test system: UO-31
NCI-H23 = test system: NCI-H23
BT-549 = test system: BT-549
HCT-15 = test system: HCT-15
Malme-3M = test system: Malme-3M
HL-60 = test system: HL-60
SK-MEL-28 = test system: SK-MEL-28
SF-295 = test system: SF-295

Row | SMILES | GI50 (HCT-116) | GI50 (HOP-62) | GI50 (SNB-75) | GI50 (OVCAR-8) | GI50 (CAKI-1) | GI50 (RXF 393) | GI50 (DU-145) | GI50 (SW-620) | GI50 (COLO 205) | GI50 (Hs-578T) | GI50 (HT-29) | GI50 (SR) | GI50 (UO-31) | GI50 (NCI-H23) | GI50 (BT-549) | GI50 (HCT-15) | GI50 (Malme-3M) | GI50 (HL-60) | GI50 (SK-MEL-28) | GI50 (SF-295)
1 | Cc1nc2ccc(NCCN(C)C)c3c(=O)c4ccccc4n1c23 | 0.851 µM (active) | 1.51 µM (inactive) | 3.5 µM (inactive) | 0.914 µM (active) | 2.76 µM (inactive) | 10.5 µM (inactive) | 2.07 µM (inactive) | 0.601 µM (active) | 1.17 µM (inactive) | 2.55 µM (inactive) | 1.02 µM (active) | 0.439 µM (active) | 2.13 µM (inactive) | 2.97 µM (inactive) | 10.5 µM (inactive) | 1.25 µM | 4.14 µM (inactive) | 3.37 µM (inactive) | 8.22 µM (inactive) | 1.84 µM (inactive)
2 | CNC(=O)OCc1nc(SC)n(C)c1COC(=O)NC | 167 µM (inactive) | 38.5 µM (inactive) | 167 µM (inactive) | 182 µM (inactive) | 87.7 µM (inactive) | 50.8 µM (inactive) | > 81.3 µM (inactive) | 172 µM (inactive) | 146 µM (inactive) | 195 µM (inactive) | 205 µM (inactive) | 71.4 µM (inactive) | 185 µM (inactive) | 130 µM (inactive) | 118 µM (inactive) | 171 µM | 113 µM (inactive) | 55.2 µM (inactive) | 188 µM (inactive) | 187 µM (inactive)
3 | Cn1c(=O)sc2cc(C(=S)N3CCOCC3)ccc21 | > 100 µM (inactive) | > 100 µM (inactive) | > 34 µM (inactive) | > 47.1 µM (inactive) | > 100 µM (inactive) | > 100 µM (inactive) | > 100 µM (inactive) | > 100 µM (inactive) | > 80.7 µM (inactive) | > 41 µM (inactive) | > 79.3 µM (inactive) | 69.7 µM (inactive) | 60 µM (inactive) | > 100 µM (inactive) | > 100 µM (inactive) | > 92.3 µM | 3.48 µM (inactive) | 24.7 µM (inactive) | > 100 µM (inactive) | > 100 µM (inactive)
4 | N#CC1(C#N)C2=C(CCCC2)NC(c2ccc(Br)cc2)C1(C#N)C#N (stereo not given) | 1.84 µM (inactive) | 17.4 µM (inactive) | 15.7 µM (inactive) | 2.7 µM (inactive) | 1.75 µM (inactive) | 2.24 µM (inactive) | 12.5 µM (inactive) | 1.31 µM (inactive) | 1.24 µM (inactive) | 17.1 µM (inactive) | 2.55 µM (inactive) | 0.782 µM (active) | 1.46 µM (inactive) | 12.3 µM (inactive) | 13.8 µM (inactive) | 2.42 µM | 1.16 µM (inactive) | 0.286 µM (active) | 12.6 µM (inactive) | 22.8 µM (inactive)
5 | COc1cc(C(O)CCBr)c(OC)cc1C (stereo not given) | 3.93 µM (inactive) | 28.6 µM (inactive) | 30.1 µM (inactive) | 6.97 µM (inactive) | 14.9 µM (inactive) | 37.2 µM (inactive) | 43.2 µM (inactive) | 3.13 µM (inactive) | 17.6 µM (inactive) | 25.1 µM (inactive) | 6.17 µM (inactive) | 13 µM (inactive) | 26.3 µM (inactive) | 14.3 µM (inactive) | 23 µM (inactive) | 7.4 µM | 22.5 µM (inactive) | > 24.7 µM (inactive) | 24.4 µM (inactive) | 36 µM (inactive)
6 | CCC1(c2ccc(N)cc2)CCC(=O)NC1=O (stereo not given) [AMINOGLUTETHIMIDE] | 2620 µM (inactive) | 1050 µM (inactive) | 1910 µM (inactive) | 3270 µM (inactive) | 1460 µM (inactive) | 1330 µM (inactive) | 3030 µM (inactive) | 3520 µM (inactive) | 1470 µM (inactive) | 1520 µM (inactive) | 2960 µM (inactive) | > 3820 µM (inactive) | 1930 µM (inactive) | 3240 µM (inactive) | 1660 µM (inactive) | 2380 µM | 2960 µM (inactive) | 1280 µM (inactive) | 3610 µM (inactive) | 1880 µM (inactive)
